Source: US5496703A, “Indirect immunoassay for dioxinlike compounds” (priority 1993, dated 1996)
“Also recorded” adds a separate entry of the source.

Key:
[1] = system: cytochrome P-450IA1; test: Ethoxyresorufin O-deethylase assay (EROD), hepatic S-9, mice dosed i.p.; type: in vivo, C57BL/6 mice; settings: hepatic S-9, i.p., 24 hours after dosing
Experimental: Female, C57BL/6 mice (or any cytochrome P-450IA1 inducible strain) were obtained from Harton Sprague Dawley (Indianapolis, Ind.). Experiments were performed using four to six week old, female mice weighing approximately 16 to 20 g. Mice were fed Prolab RMH 1000 rat, mouse and hamster food (Agway, Cortland, N.Y.) and received tap water ad libitum. All mice were housed three to five per cage and maintained on a photoperiod of 12 hours. Mice were killed 24 hours following an intraperitoneal injection of either corn oil alone or TCDD (Analabs) at 0.25, 0.5, 1, 2, 4, 10, 50 μg/kg, the volume of the injections ranged from 0.1 to 0.2 ml per mouse. […]
Resorufin (hydroxyphenoxazone) and ethoxyresorufin was purchased from Molecular Probes (Junction City, Oreg.). EROD was measured by following the increase in fluorescence due to the formation of resorufin by dealkylation of its ethoxy derivative. […] A baseline of fluorescence was recorded at an excitation wavelength of 530 nm and an emission wavelength of 585 nm. The reaction was started with the addition of NADPH and the dealkylation of the derivative to resorufin was followed by a progressive increase in fluorescence as resorufin was generated. Recordings were standardized by measuring the fluorescence of freshly generated resorufin from resorufin acetate (Sigma, St. Louis, Mo.) prior to each assay. […]

[2] = system: protein tyrosylphosphorylation in X3 human lymphoblastoma cells; test: Immunoblot / densitometry of X3 cell lysate phosphotyrosyl proteins; type: cell-based
Experimental: The indicated densitometric measurements were made on a BioImage AK Kodak Visage 110.
The X3 human lymphoblastoma cells (Genetest, Wolburn, Mass.) were grown in 75 cm^2 T-flasks in RPMI 1640 medium (Gibco) containing 9% horse serum. Any cell or cell line expressing cytochrome P-450IA1 may be used. The cells were cultured at 37° C. in a 5% CO2 (balance air) environment. Cells were subcultured by centrifuging (1000 rpm, 3 minutes) and resuspended in fresh media to a volume of 50 mL (at a cell density of 1.0×10^6 cells/mL). The TCDD-corn oil solution was homogenized with serum to a final concentration of 0.10 μg/mL. The TCDD-serum was added at concentrations of 0, 0.02, 0.05, 0.1, 0.5 and 1.0 nM per flask and incubated for 16 hours. After the appropriate incubation time, the cells were harvested by centrifugation and washed three times (PBS, […]). A final cell count was then determined.
The separation of cell lysate proteins by means of SDS PAGE was performed by mixing the cell lysate 1:1 with a double strength sodium dodecyl sulfate sample buffer and heating the solution at 100° C. for 3 minutes prior to one-dimensional SDS polyacrylamide gel electrophoresis with 10% polyacrylamide. After electrophoresis, a Milliblot SDE electroblot apparatus (Millipore, Bedford, Mass.) was used to transfer the proteins from the polyacrylamide gels to an Immobilon™ membrane filter (Millipore). Complete transfers were accomplished in 25-30 min at 500 mA and were assessed by tracking pre-stained molecular weight standards onto the membrane filter. Membrane filters were blocked by incubating in TBS (Tris buffered saline) containing 5% milk for 30 minutes at 37° C. The membranes were then washed in TBST (TBS with 0.05% Tween 20) and incubated overnight with antiphoshphotyrosine monoclonal antibody (1.5 μg/mL) in TBST. The primary antibody was removed, and the membranes were washed four times in TBST. To visualize the antibody reaction, the membranes were incubated for 3 hours at 37° C. with alkaline phosphatase-conjugated antimouse IgG diluted 1:1000 in TBST, washed 3 times in TBST, and developed for 15 to 30 minutes. Determination of molecular weights of immuno-stained proteins was performed by adding molecular weight standards (Bio Rad) to reference lanes and staining the membrane filters with amido black.
An estimate of the limit of detection of dioxinlike activity can be made using the 0.2 nM dose as the minimally effective dose. At this level of administration the 57 kDalton band becomes easily visible. Assuming a 100 μL incubation well (e.g., in a 96 well microtiter plate), the diethyl ether extract would have to contain approximately 37.5 pg of dioxin equivalents to initiate a tyrosylphosphorylation of the 57 kDalton protein. This amount would be present in the extract of a 2 g sample containing 20 parts per trillion of dioxin equivalents. If the 33 kDalton protein were used to quantitate the dioxinlike activity, the limit of detection based upon a response at the EC50 of 0.04 nM, would be approximately 4 ppt. Since it is generally believed that an action concentration of dioxin is 50 ppt and current instrumental methods detect approximately 3.5 ppt, this level of analysis is sufficient for initial regulatory or health considerations.

[3] = system: human receptor; settings: cited from earlier work
[4] = system: hepatic Ah receptor; settings: room temperature, ligand concentration 10^-9 M; cited from earlier work
[5] = system: Ah receptor; settings: C57BL/6J mouse; cited from earlier work
[6] = system: AHH and delta-ALA (delta-aminolaevulinic acid) synthetase; settings: versus other inducers, such as 3-methyl-cholanthrene; cited from earlier work
[7] = single human; cited from earlier work
[8] = cited from earlier work
[9] = system: C57BL/6J mouse strain; settings: cited from earlier work
[10] = system: DBA/2 strain; settings: DBA/2 mouse; cited from earlier work

Structure (SMILES): Clc1cc2c(cc1Cl)Oc1cc(Cl)c(Cl)cc1O2 [TCDD, 2,3,7,8-tetrachlorodibenzo-p-dioxin]
- ED50, cytochrome P-450IA1 expression (EROD) [1]: 5 μg TCDD/kg
- dose of maximal EROD activity [1]: 50 μg TCDD/kg
- minimal effective concentration ([2]; Homo sapiens, 16 h, limit-of-detection estimate, read-out: minimally effective dose (57 kDalton band easily visible)): 0.0002 µM
- EC50 ([2]; Homo sapiens, densitometry of immunoblot, 16 hours, read-out: EC50, 33 kDalton protein tyrosylphosphorylation): 0.04 nM
- concentration of maximal 33 kDalton protein tyrosylphosphorylation ([2]; densitometry of immunoblot, 16 hours): 0.1 nM
- pTP at 57 kDaltons ([2]; immunoblot): highly phosphorylated at tyrosine residues; also recorded: appeared in all X3 cells treated with TCDD
- pTP at 110 kDaltons ([2]; immunoblot): decreased with increasing TCDD concentration; also recorded: decreased in intensity
- binding to human receptor [3]: Weaker binding
- saturation half-life of binding [4]: less than 1 hour
- hepatic level of Ah receptor capable of binding TCDD [5]: 40-120 fmol/mg of protein
- potency in induction of AHH and delta-ALA synthetase [6]: orders of magnitude more potent
- half-life [7]: 5.8 year
- difference in whole body half-life between guinea pig and hamster ([8]; guinea pig versus hamster): 3 fold
- whole-body half-life ([8]; rodents): on the order of weeks
- susceptibility to TCDD-induced toxicity [9]: very susceptible
- susceptibility to TCDD toxicity [10]: relatively resistant
